Series [1] in a line: Metabolite profiling of NDGA in plasma after oral administration in male CD-1 mice (LC-HRAMS, semi-quantitative). It is filed as in vivo. The procedure: The dosing solution was prepared at a nominal concentration of 20 mg/mL; detailed description is shown in Appendix I. The actual concentration, established using HPLC-MS, was 84.9% of nominal (+/−8.9%) and was within the acceptable range according to the study protocol. Animal dosing and blood collection were performed according to the study protocol; details are shown in Appendix II. […] Plasma samples were prepared from blood according to the study protocol. Aliquots of the stabilized (with ascorbic acid) plasma samples were treated with MeCN (1:3 ratio) containing a mixture of internal standards (metoprolol, propranolol, and warfarin, each at 500 ng/mL) for protein precipitation. After centrifugation, clear supernatants were analyzed directly using LC-High Resolution Accurate Mass Spectrometry (HRAMS) as described below.
The samples were separated using HPLC, and two stationary phases were evaluated: ACE pentaflurophenyl C18 (Phenomenex) and dC18 (Waters). […]
Following the pre-scan, the FT analyzer is set to perform a slow survey scan at high resolution (HRMS). […] The decision event selects the two most intense ions detected in the pre-scan which are on the parent mass list. […]
1) Subtraction of the chromatogram of a control sample (solvent control in blank matrix) from the analyzed sample, leading to creation of a “SUB” file (Appendix II). […]

A short description of series [2]: In vitro stability of NDGA in freshly drawn whole blood of CD-1 mice. It is filed as in vitro ADME. Particulars: CD-1 mouse whole blood. On the procedure: The aliquots were treated with MeCN (1:3 ratio) containing a mixture of internal standards (metoprolol, propranolol, and warfarin, each at 500 ng/mL) for protein precipitation. After centrifugation, supernatants were analyzed directly using LC-HRAMS as described below.

A short description of series [3]: Exposure (plasma concentration by LC-MS/MS) of NDGA after oral administration in male CD-1 mice at 100 mg/kg. It is filed as in vivo. Particulars: for concentration at 0.167 h / concentration at 0.5 h / concentration at 2 h / concentration at 4 h: male, CD-1, mouse, plasma, po, 100 mg/kg, PO 100 mg/kg; for concentration at 0.167 h: time point 0.167 hr; for concentration at 0.5 h: time point 0.50 hr; for concentration at 2 h: time point 2.0 hr; for concentration at 4 h: time point 4.0 hr. On the procedure: Test compound was dosed at 100 mg/kg from 0.5% MC and 0.5% NaCMC in DI water in separate groups. Analytical stock solutions (1 mg/mL of the free drug) were prepared in DMSO. Standards were made from independently prepared stock solutions of the test compound. Standards and QCs were prepared in male CD-1 mouse plasma containing K2EDTA as an anticoagulant with 10% of 0.1M ascorbic acid in water. Standards were prepared at concentrations of 1000, 500, 100, 50, 10, 5, 1, and 0.5 ng/mL by serial dilution. Standards were treated identically to the study samples. Plasma samples were manually extracted using acetonitrile precipitation. All samples were thawed on ice, and kept on ice during preparation. […] [table] • Flow Rate: 300 μL/min • Injection Volume: 10 μL • Run Time: 4.5 min • Temperature: ambient • Autosampler Wash: #1: 1:1:1 (v:v:v) water:acetonitrile:isopropanol with 0.2% formic acid • #2: 50:50 (v:v) methanol:water [table] […] All data are expressed as ng/mL of the free drug. Samples that were below the limit of quantitation were not used in the calculation of averages. Plasma concentrations versus time data are plotted in FIGS. 24 and 25.

Series [4] in a line: Solubility of NDGA in intestinal fluids. The format is physicochemical. Particulars: fassgf or other biorelevant.
In a further series the test system is H1975, A427, A549 cells. Nature of the series: Cell survival/proliferation (CyQuant) of NSCLC cell lines in 10% serum from untreated mice spiked with drug. The following applies: 72 h. It is filed as cell-based, human. The procedure: The CyQuant™ assay (Invitrogen) may be used to differentiate antioxidant activity from anti-proliferative activity. Briefly, the assay is based on dye fluorescence enhancement upon binding to cellular nucleic acids. Cells are lysed by addition of a buffer containing the CyQUANT™-GR dye; there are no washing steps, growth medium changes or long incubations. The resulting fluorescence is proportional to the number of cells in the sample and is measured directly using the TD-700 fluorometer equipped with a fluorescein filter kit. The CyQUANT™ assay can detect much lower cell numbers than Neutral Red or methylene blue assays. […] Thus, cells can be frozen prior to assaying; time course assays are facile and data obtained from samples taken at widely different time intervals can be directly compared. […] Cell number differences were measured using the CyQuant® assay (Invitrogen). H1975, A427, A549 cells were seeded at 1×10^4 cells/well in a 96 well plate and incubated overnight at 37° C. […] The plates were incubated for 72 h at 37° C. and the relative cell number per well was determined using the CyQuant® reagent. Fluorescence was measured using a Molecular Devices plate reader.

Another series concerns A427 cells. The series can be described thus: Cell number (CyQuant) after culture in 10% serum from mice orally administered 300 mg/Kg drug, A427. It is filed as cell-based, human. Particulars: A427, 72 h. On the procedure: (§1) The plates were incubated for 72 h at 37° C. and the relative cell number per well was determined using the CyQuant® reagent. Fluorescence was measured using a Molecular Devices plate reader. […] Serum from five animals was pooled, mixed with culture medium at a concentration of 10% and cells incubated for 72 hours. Cell number was then determined using the CyQuant® assay. […] Differences in cell number for cells cultured in 10% serum was compared by t-test. P values are: A427, p=0.009; A549, p=0.133; and […], p=0.744.

In another series the test system is A549 cells. The series can be described thus: Cell number (CyQuant) after culture in 10% serum from mice orally administered 300 mg/Kg drug, A549. It is filed as cell-based, human. Particulars: A549, 72 h. On the procedure: as §1
Where [5] appears, read: 0.5% MC in DI water, group average.
Setting [6] is: 0.5% MC in DI water, group average, read-out: Average plasma concentration.
Setting [7] is: 0.5% NaCMC in DI water, group average.
Setting [8] is: 0.5% NaCMC in DI water, group average, read-out: Average plasma concentration.

≈ marks a conversion by molar mass, not a printed value. Where two headings read alike, the source gives them in different places.

For orientation: solubility means the dissolved amount per volume that the medium holds. Higher therefore signals a readily soluble substance. Consider `CC(Cc1ccc(O)c(O)c1)C(C)Cc1ccc(O)c(O)c1` (stereo not shown) [NDGA, nordihydroguaiaretic acid], for which the “Adverse effects in the dosed animals” value in series [1] (male CD-1 mice, 300 mg/kg PO, 0.5% NaCMC in water) is “No adverse effects were observed”. Moreover, in series [1] (mouse plasma, 300 mg/kg PO NDGA, trapezoidal approximation, 5-240 min), the AUC is given as 28.5 peak area ratio* min. For the same compound, the “Stability of NDGA in whole blood” value in series [2] (time 0 minutes) is 100; in series [2] (time 15 minutes), 7.2. In series [2] (up to 60 minutes), the “Putative metabolites detected upon incubation in whole blood in vitro” value is given as “No putative metabolites were detected”. The “Stability in whole blood sample (in words)” value in series [2] (possibly impacted by poor recovery) was “appears to be unstable”. In series [3] (100 mg/kg PO, one mouse (#187) died ~5 min after 30 min sample, possibly stress), the “Observations and adverse reactions” value was “No other adverse effects were observed”. For the same compound, the concentration at 0.167 h worked out at 43.4 ng/mL in series [3] (setting [5]) and 70.8 ng/mL in series [3] (setting [7]). Further, the concentration at 0.5 h is 44.2 ng/mL in series [3] (setting [6]); 49.6 ng/mL in series [3] (setting [8]); 40.9 ng/mL in series [3] (0.5% NaCMC in DI water, individual mice #183-187, read-out: Individual plasma concentration Conc.). The figures for the concentration at 2 h in series [3] (setting [5]) and in series [3] (setting [7]) were 3.08 ng/mL and 1.83 ng/mL, respectively. For the same compound, the concentration at 4 h in series [3] (setting [6]) amounted to 3.19 ng/mL; in series [3] (setting [8]), 2.75 ng/mL; in series [3] (0.5% NaCMC in DI water, individual mice #183-186, read-out: Individual plasma concentration Conc.), 3.24 ng/mL. In series [4], this compound came in with a solubility of roughly 8 µg/mL (≈ 26.5 µM). Further, the Concentration above which reduced cell proliferation was observed in the series with H1975, A427, A549 cells (10% mouse serum spiked with drug) was greater than 10 µM. In addition, the Cell number reduced in the series on H1975, A427, A549 cells (maximum concentration tested, 10% mouse serum, all cell lines averaged) worked out at 33%. Moreover, the entries for the “Number of cells after culture in 10% serum from treated mice (in words)” value with A427 cells and in the series on A549 cells were “decrease was statistically significant” and “not significant at the 0.05 level”, respectively.
